Read-outs that look alike come from different tables or passages of the source.
Conditions: saturated solution

Measured: Appearance

Cc1cc2c(s1)Nc1ccccc1N=C2N1CCN(C)CC1 [olanzapine, 2-methyl-4-(4-methyl-1-piperazinyl)-10H-thieno[2,3-b][1,5]benzodiazepine]
Clear amber solution: 20% Dimethylacetamide/80% PEG 200 | 40% Dimethylacetamide/60% PEG 200 | 100% PEG 200
